The values below come from ChEMBL document CHEMBL4483862, “Open-source discovery of chemical leads for next-generation chemoprotective antimalarials” (2018).

Where only a bound is given, the exact number is not on record here.

For the experiment, the system named is Plasmodium berghei. Description: Luciferase/luciferin-expressing antifolate-resistant parasites were used to infect a culture of HepG2 cells that were pre-incubated with compounds. Infected hepatocytes emit light due to the luciferase reaction. Assay results are presented as the percent inhibition of light emission compared to control. […]. The experiment is classed as functional. To be noted: sporozoite; for IC90: read-out: LUCIFERASE INFECTION ASSAY - IC90.

Where [1] appears, read: read-out: LUCIFERASE INFECTION ASSAY - IC50.

Regarding `Cc1ccc(C(=O)c2c(NC(=O)CSc3nc4ccccc4n3CC(C)C)sc3c2CCCC3)cc1`, the IC90 was over 10 µM. For the same compound, the IC50 (FFLUC_HILL_SLOPE 15.8, FFLUC_R_SQUARED 0.569, HEPG2TOX_HILL_SLOPE 0.459, HEPG2TOX_R_SQUARED 0.518, PBLUC_HILL_SLOPE 11.3, PBLUC_R_SQUARED 0.271, read-out: LUCIFERASE INFECTION ASSAY - IC50) is over 10 µM.

Consider `FC(F)(F)Oc1cccc(-c2cnc3ccc(-c4cccs4)nn23)c1`, for which the IC90 turned out to be 7.53 µM. The half-maximal inhibitory concentration (IC50) (PBLUC_HILL_SLOPE 4.13, PBLUC_R_SQUARED 0.323, read-out: LUCIFERASE INFECTION ASSAY - IC50) came out at 4.43 µM. With `Cc1nn2c(nc(NCc3ccc(Cn4ccnc4)cc3)c3ccccc32)c1Cl`, the IC90 was over 10 µM. Besides, where the note is “FFLUC_HILL_SLOPE 16.1, FFLUC_R_SQUARED 0.458, read-out: LUCIFERASE INFECTION ASSAY - IC50”, the IC50 is over 10 µM.

As to `CC1N(C)c2cc(NC(=O)/C=C/c3ccc(F)cc3)ccc2C1(C)C` (configuration not stated), the IC90 was over 10 µM. Besides, the IC50 (PBLUC_HILL_SLOPE 2.49, PBLUC_R_SQUARED 0.1, read-out: LUCIFERASE INFECTION ASSAY - IC50) came to 5.32 µM. Consider `O=S(=O)(Nc1cccc(C(F)(F)F)c1)c1c(F)c(Br)cc(F)c1Br`, for which the IC90 is over 6.67 µM. The IC50 (PBLUC_HILL_SLOPE 1.15, PBLUC_R_SQUARED 0.311, read-out: LUCIFERASE INFECTION ASSAY - IC50) is over 6.67 µM.

For the compound `CSc1sc(C#N)c(C)c1-c1ccon1`, the IC90 is over 14 µM. In addition, the IC50 (PBLUC_HILL_SLOPE 9.35, PBLUC_R_SQUARED 0.116, read-out: LUCIFERASE INFECTION ASSAY - IC50) was over 14 µM. As for `CCCC/C=C/c1cnc2ccc(NC(CC)CO)nn12` (configuration not stated), the IC90 was over 11.4 µM. Also, where the note is “PBLUC_HILL_SLOPE 1.69, PBLUC_R_SQUARED 0.254, read-out: LUCIFERASE INFECTION ASSAY - IC50”, the IC50 was found to be 7.08 µM. Consider `O=c1c(NNc2cccc(C(F)(F)F)c2)c(CSc2ccc(Cl)cc2)[nH]n1-c1ccccc1`, for which the IC90 is over 6.72 µM. Further, the IC50 under setting [1] is over 6.72 µM. Turning to `O=C(COC(=O)CCC1CCCC1)Nc1ncc(C(F)(F)F)cc1Cl`, the concentration for an effect of 90% (IC90) is over 10 µM. In addition, the IC50 under setting [1] is over 10 µM. As to `COc1ccc(C(c2ccc(N(C)C)cc2)c2ccc(N(C)C)cc2)c(C)c1C`, the IC90 was over 8.49 µM. Besides, the IC50 under setting [1] is over 8.49 µM.

As for `COc1ccc(C)cc1CN1CCN(c2ccc(S(=O)(=O)NC(C)(C)C)cc2[N+](=O)[O-])CC1`, the IC90 is over 10 µM. The IC50 (PBLUC_HILL_SLOPE 0.589, PBLUC_R_SQUARED 0.215, read-out: LUCIFERASE INFECTION ASSAY - IC50) is over 10 µM.

On to `O=S(=O)(c1ccc(CNc2ncnc3scc(-c4ccc(F)cc4)c23)s1)N1CCCC1`, for which the IC90 was over 10 µM. Also, the IC50 (FFLUC_HILL_SLOPE 2.33, FFLUC_R_SQUARED 0.668, PBLUC_HILL_SLOPE 11.9, PBLUC_R_SQUARED 0.757, read-out: LUCIFERASE INFECTION ASSAY - IC50) amounted to 8.74 µM. As to `COc1cccc(-c2cn3c(-c4ccc(C(=O)NC5CC5)cc4)cnc3cn2)c1F`, the IC90 is 7.93 µM. Besides, where the note is “PBLUC_HILL_SLOPE 10.9, PBLUC_R_SQUARED 0.72, read-out: LUCIFERASE INFECTION ASSAY - IC50”, the IC50 amounted to 6.48 µM. On to `COc1ccccc1/C=C(/C(=O)OCc1cn2ccccc2c1C#N)c1ccccc1`, for which the IC90 was over 10 µM. Moreover, the IC50 (PBLUC_HILL_SLOPE 16.4, PBLUC_R_SQUARED 0.216, read-out: LUCIFERASE INFECTION ASSAY - IC50) amounted to 9.92 µM. In the case of `CCN(CC)S(=O)(=O)c1cccc(NC(=O)C23CC4CC(C2)CC(c2ccc(C)cc2)(C4)C3)c1`, the IC90 is over 10 µM. Moreover, the IC50 under setting [1] is over 10 µM. Consider `CC(NC(=O)Nc1ccc(C#N)cc1)c1ccc2ccccc2c1` (configuration not stated), for which the IC90 is over 10 µM. Under “PBLUC_HILL_SLOPE 12.1, PBLUC_R_SQUARED 0.463, read-out: LUCIFERASE INFECTION ASSAY - IC50”, the IC50 came out at 9.4 µM. On to `OCc1ccc(-c2cnc3cnc(-c4cccc(F)c4)cn23)cc1`, for which the 90% effect concentration (IC90) is over 10.3 µM. For the same compound, the IC50 under setting [1] is over 10.3 µM. Consider `Clc1ccccc1-c1cnc2cnc(-c3cnn(Cc4ccccc4)c3)cn12`, for which the IC90 is over 8.55 µM. In addition, the IC50 under setting [1] is over 8.55 µM. `COc1cccc(-c2ccc3nnc(-c4ccc5c(c4)OCO5)n3c2)c1`: the IC90 worked out at 0.981 µM. The half-inhibitory concentration (IC50) (HEPG2TOX_HILL_SLOPE 1.68, HEPG2TOX_R_SQUARED 0.984, PBLUC_HILL_SLOPE 2.05, PBLUC_R_SQUARED 0.784, read-out: LUCIFERASE INFECTION ASSAY - IC50) turned out to be 0.337 µM. In the case of `Cc1cc(C)c(-c2csc(NC(=O)C3CC4CCCC(C3)C4=O)n2)c(C)c1` (configuration not stated), the IC90 was over 10 µM. In addition, under “HEPG2TOX_HILL_SLOPE 3.24, HEPG2TOX_R_SQUARED 0.936, PBLUC_HILL_SLOPE 1.48, PBLUC_R_SQUARED 0.583, read-out: LUCIFERASE INFECTION ASSAY - IC50”, the half-inhibitory concentration (IC50) was found to be 2.93 µM. For `c1ccc2cc(-c3cc4ccccc4[nH]3)ccc2c1`, the IC90 was over 13.6 µM. Moreover, the IC50 (HEPG2TOX_HILL_SLOPE 2.23, HEPG2TOX_R_SQUARED 0.773, PBLUC_HILL_SLOPE 13.6, PBLUC_R_SQUARED 0.0646, read-out: LUCIFERASE INFECTION ASSAY - IC50) turned out to be 12.2 µM. Turning to `Cc1nn2c(nc(Sc3nc4ccccc4o3)c3ccccc32)c1/C=N/NC(=O)c1cccc(S(=O)(=O)N2CCOCC2)c1`, the IC90 was over 10 µM. Moreover, the half-maximal inhibitory concentration (IC50) under setting [1] is over 10 µM. Turning to `COC(=O)c1occc1CSc1nc2ccc(Br)cc2c(=O)n1-c1ccccc1`, the IC90 is over 10 µM. Further, the IC50 (PBLUC_HILL_SLOPE 130, PBLUC_R_SQUARED 0.0623, read-out: LUCIFERASE INFECTION ASSAY - IC50) stood at 10 µM.

Turning to `COc1ccc(OC)c(NC(=O)c2cc(-c3cc(Cl)ccc3O)[nH]n2)c1`, the concentration for an effect of 90% (IC90) is over 8.83 µM. Besides, the 50% inhibitory concentration (IC50) (HEPG2TOX_HILL_SLOPE 2.05, HEPG2TOX_R_SQUARED 0.718, PBLUC_HILL_SLOPE 2.04, PBLUC_R_SQUARED 0.622, read-out: LUCIFERASE INFECTION ASSAY - IC50) stood at 4.02 µM. With `Nc1ccc(-c2cn3c(-c4ccc(Oc5ccccc5)cc4)cnc3cn2)cn1`, the IC90 was over 8.7 µM. Also, the IC50 (HEPG2TOX_HILL_SLOPE 7.27, HEPG2TOX_R_SQUARED 0.167, PBLUC_HILL_SLOPE 11.9, PBLUC_R_SQUARED 0.186, read-out: LUCIFERASE INFECTION ASSAY - IC50) was 7.28 µM.

As to `O=C(NCc1ccc(Oc2ccc(F)cc2)cc1)c1ccc(=O)[nH]n1`, the IC90 is over 10 µM. The IC50 (HEPG2TOX_HILL_SLOPE 2.29, HEPG2TOX_R_SQUARED 0.724, PBLUC_HILL_SLOPE 1.94, PBLUC_R_SQUARED 0.162, read-out: LUCIFERASE INFECTION ASSAY - IC50) is 5.95 µM. `O=C(CN1CCN(Cc2csc(Nc3cccc(C(F)(F)F)c3)n2)CC1)N1CCCC1`: the IC90 is over 10 µM. Besides, under setting [1], the IC50 was over 10 µM. Take `FC(F)(F)c1cc(NC(=S)N2CCC(CCCC3CCN(C(=S)Nc4cc(C(F)(F)F)cc(C(F)(F)F)c4)CC3)CC2)cc(C(F)(F)F)c1`: the IC90 is over 4.38 µM. In addition, the IC50 (FFLUC_HILL_SLOPE 260, FFLUC_R_SQUARED 0.348, HEPG2TOX_HILL_SLOPE 8.4, HEPG2TOX_R_SQUARED 0.678, PBLUC_HILL_SLOPE 17.9, PBLUC_R_SQUARED 0.0888, read-out: LUCIFERASE INFECTION ASSAY - IC50) was over 4.38 µM. Turning to `Cc1cc(C(=O)CSc2nnc3n2CCCCC3)c(C)n1Cc1ccc2c(c1)OCO2`, the 90% effect concentration (IC90) was over 10 µM. For the same compound, the IC50 under setting [1] is over 10 µM. As for `O=C(Nc1nc2ccccn2c1C(=O)NC1CCCCC1)c1ccc(F)c(F)c1`, the IC90 was over 8.28 µM. Also, the IC50 (PBLUC_HILL_SLOPE 13.4, PBLUC_R_SQUARED 0.0564, read-out: LUCIFERASE INFECTION ASSAY - IC50) turned out to be 7.37 µM. Regarding `CNc1snc(C)c1C(=O)OCc1ccc(-n2cccn2)cc1`, the IC90 turned out to be 1.04 µM. Under “HEPG2TOX_HILL_SLOPE 12.1, HEPG2TOX_R_SQUARED 0.465, PBLUC_HILL_SLOPE 2.29, PBLUC_R_SQUARED 0.748, read-out: LUCIFERASE INFECTION ASSAY - IC50”, the IC50 was determined as 0.4 µM. As to `Cc1cc(C)c2cc(C(=O)Nc3ccc(N4CCN(C)CC4)nc3)[nH]c2c1`, the IC90 is 3.64 µM. Further, for the setting “HEPG2TOX_HILL_SLOPE 1.47, HEPG2TOX_R_SQUARED 0.9, PBLUC_HILL_SLOPE 16.4, PBLUC_R_SQUARED 0.482, read-out: LUCIFERASE INFECTION ASSAY - IC50”, the IC50 worked out at 3.19 µM. For the compound `O=C(Nc1cccc(C(F)(F)F)c1)Nc1ccc2nc(-c3ccncc3)nn2c1`, the IC90 is over 10 µM. Moreover, the IC50 under setting [1] was over 10 µM.

As for `N#CC(c1nc(-c2ccc(Cl)cc2)cs1)N1CCc2ccccc2C1` (configuration not stated), the IC90 was over 10 µM. Also, the IC50 under setting [1] was over 10 µM. Regarding `Fc1ccc(-c2csc(NCC3CCCO3)n2)cc1` (configuration not stated), the IC90 was over 11.9 µM. Also, the IC50 under setting [1] is over 11.9 µM. For `N#CC(=C1SCCCCS1)S(=O)(=O)c1ccccc1`, the IC90 was over 10.6 µM. Also, the half-inhibitory concentration (IC50) under setting [1] is over 10.6 µM. For the compound `CN(C)c1cccc(-c2cnc3cnc(-c4ccc(CO)cc4)cn23)c1`, the IC90 was over 9.58 µM. In addition, the IC50 (PBLUC_HILL_SLOPE 3.53, PBLUC_R_SQUARED 0.408, read-out: LUCIFERASE INFECTION ASSAY - IC50) is 6.91 µM. For the compound `Cc1ccccc1-c1cn2c(-c3ccc(N(C)C)cc3)cnc2cn1`, the IC90 was over 10 µM.

As to `CC1=CC(C)(C)N(C(=O)c2ccc(F)cc2)c2cc3c(cc21)OCO3`, the concentration for an effect of 90% (IC90) was over 9.72 µM. The IC50 (PBLUC_HILL_SLOPE 1.83, PBLUC_R_SQUARED 0.549, read-out: LUCIFERASE INFECTION ASSAY - IC50) was 6.14 µM.
